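Cells were grown in 96-well plates and exposed to each compound for 48 hours at five concentrations; endpoints were interpolated linearly between bracketing concentrations, or set to the highest concentration if not reached. Definition used: TGI = concentration required for complete inhibition of growth.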
Key:
Assay in all cases: NCI-60 cell line screen, 48 h
HT29 colon = system: HT29 colon
EKVX NSCLC = system: EKVX NSCLC
SK-MEL-28 melanoma = system: SK-MEL-28 melanoma
K-562 leukemia = system: K-562 leukemia
M14 melanoma = system: M14 melanoma
SF-295 CNS = system: SF-295 CNS
HOP-92 NSCLC = system: HOP-92 NSCLC
SK-MEL-5 melanoma = system: SK-MEL-5 melanoma
BT-549 breast = system: BT-549 breast
SN12C renal = system: SN12C renal
LOX IMVI melanoma = system: LOX IMVI melanoma
MDA-N = system: MDA-N
HCT-15 colon = system: HCT-15 colon
ACHN renal = system: ACHN renal
SF-268 CNS = system: SF-268 CNS
UO-31 renal = system: UO-31 renal
A498 renal = system: A498 renal
SK-MEL-2 melanoma = system: SK-MEL-2 melanoma
SF-539 CNS = system: SF-539 CNS
OVCAR-3 ovarian = system: OVCAR-3 ovarian

| SMILES | TGI (HT29 colon) [µM] | TGI (EKVX NSCLC) [µM] | TGI (SK-MEL-28 melanoma) [µM] | TGI (K-562 leukemia) [µM] | TGI (M14 melanoma) [µM] | TGI (SF-295 CNS) [µM] | TGI (HOP-92 NSCLC) [µM] | TGI (SK-MEL-5 melanoma) [µM] | TGI (BT-549 breast) [µM] | TGI (SN12C renal) [µM] | TGI (LOX IMVI melanoma) [µM] | TGI (MDA-N) [µM] | TGI (HCT-15 colon) [µM] | TGI (ACHN renal) [µM] | TGI (SF-268 CNS) [µM] | TGI (UO-31 renal) [µM] | TGI (A498 renal) [µM] | TGI (SK-MEL-2 melanoma) [µM] | TGI (SF-539 CNS) [µM] | TGI (OVCAR-3 ovarian) [µM] |
| --- | --- | --- | --- | --- | --- | --- | --- | --- | --- | --- | --- | --- | --- | --- | --- | --- | --- | --- | --- | --- |
| COc1ccc(-c2c(=O)[nH]n3c(=S)nc(-c4ccccc4)[nH]c23)cc1OC | 48.8 | 60.8 | 54.7 | 95 | 38 | 51.4 | 37 | 30.1 | 37.6 | 37.3 | 37 | 28.3 | 41.6 | 51.1 | > 100 | 33.8 | 33.1 | – | – | – |
| c1ccc2c(c1)nc1n2CCCn2ccnc2-1 | > 100 | > 100 | > 100 | > 100 | > 100 | > 100 | > 100 | > 100 | > 100 | > 100 | > 100 | > 100 | > 100 | > 100 | > 100 | > 100 | > 100 | > 100 | > 100 | > 100 |
| N#Cc1c(O)c(N=Nc2ccccc2F)c(=O)n2c1[nH]c1ccccc12 | > 100 | > 100 | > 100 | > 100 | > 100 | > 100 | 60.3 | > 100 | > 100 | > 100 | > 100 | > 100 | > 100 | > 100 | > 100 | > 100 | > 100 | 57 | > 100 | > 100 |
| N#Cc1c(Cl)cccc1Oc1ccc(S(=O)(=O)/N=C(\NN)Nc2ccc(Cl)cc2)cc1 | 96.2 | 68.3 | > 100 | > 100 | 52.1 | 70.3 | 54 | 31.3 | 67.8 | 64 | 31.4 | 66.4 | > 100 | > 100 | 48.9 | 91.5 | > 100 | 46.5 | 36.6 | 40.2 |
| O=C1CC(O)c2c(Br)sc(Br)c21 (configuration not stated) | 43.1 | 27.7 | 30.1 | 8.3 | 28.8 | 32 | 43.6 | 34.5 | 63.1 | 34.2 | 20.4 | 22.5 | 43 | 29.7 | 43.8 | 7.19 | 39.6 | 28 | 21.5 | 19.9 |
| COC(=O)c1ccccc1CC1Cc2ccc3c(c2C1)CCC3 (configuration not stated) | 96.8 | 48.8 | > 100 | > 100 | > 100 | > 100 | 52.5 | 43.8 | > 100 | > 100 | 31.1 | > 100 | 55.3 | > 100 | > 100 | > 100 | > 100 | 30.7 | > 100 | > 100 |
| C=CC(c1ccccc1)[C@@]1(OC(C)=O)C(=O)C(=O)OC1C1COC(C)(C)O1 (some centres not stated) | 46.2 | 35.3 | 24.6 | > 26 | 25.5 | 31.6 | 15.9 | 29.7 | 30.1 | 21.7 | 16.2 | 24.1 | 24.9 | 18.6 | 71.4 | 23.7 | 47.9 | 33.4 | 29.4 | 24.8 |
| Cc1ccc(NN=NCCCCN)cc1 | > 100 | > 100 | – | – | > 100 | > 100 | > 100 | > 100 | > 100 | > 100 | > 100 | > 100 | > 100 | > 100 | > 100 | > 100 | > 100 | > 100 | > 100 | – |
| COc1cc(/C=C2\C[C@H]3[C@@H]4CC=C5C=C(N6CCCC6)CC[C@]5(C)[C@H]4CC[C@]3(C)C2=O)cc(OC)c1OC | 8.67 | 16.5 | 19.5 | > 100 | 5.37 | 7.04 | 5.67 | > 27.9 | 5.82 | 12.1 | 2.87 | 4.2 | 6.53 | 5.46 | 5.05 | 8.48 | 21 | 13 | 12.5 | 4.07 |
| CN(CCCCN1CCCC1)CCCN(C)C(=O)Cc1ccc(Cl)c(Cl)c1 | 18.1 | 37.6 | 3.51 | 11.6 | 38.1 | 38.8 | 21.3 | 23.8 | 32.5 | 37.8 | 27.9 | 15.5 | 85.1 | > 100 | > 100 | 3.72 | 30.7 | 22.5 | 24.3 | 62.4 |
| Oc1cc(Br)cc2cccnc12 | 35 | 16.2 | > 100 | 8.08 | > 37.7 | 32.7 | 38 | 15.1 | 98 | > 55.6 | – | 97 | > 100 | > 69 | > 42.2 | 35.9 | 24.3 | > 100 | > 45.1 | 13.7 |
| COC(=O)c1sc2ncc3c(c2c1N)CCCCCC3 | > 100 | > 100 | > 100 | > 100 | > 100 | > 100 | > 100 | > 100 | > 100 | > 100 | > 100 | > 100 | > 100 | > 100 | > 100 | > 100 | > 100 | > 100 | > 100 | > 100 |
| COC(=O)c1ccccc1C1CN=NC12Cc1ccc(C)c(C)c1C2=O (configuration not stated) | > 100 | > 100 | > 100 | > 100 | > 100 | > 100 | > 100 | > 100 | > 100 | > 100 | > 100 | > 100 | > 100 | > 100 | > 100 | > 100 | > 100 | > 100 | > 100 | > 100 |
| CC(C)(C)c1cc(C2NCCO2)cc(C(C)(C)C)c1O (configuration not stated) | > 100 | > 100 | > 100 | > 100 | – | > 100 | > 100 | > 100 | > 100 | > 100 | > 100 | > 100 | > 100 | > 100 | > 100 | – | > 100 | > 100 | > 100 | > 100 |
| Cc1ccc(NC(=O)CSc2nc(C)nc3c2sc(=S)n3-c2ccccc2)cc1 | > 10 | > 10 | > 10 | > 10 | > 10 | > 10 | 9.04 | > 10 | 9.55 | > 10 | > 10 | > 10 | > 10 | > 10 | > 10 | – | > 10 | > 10 | 7.81 | > 10 |
| NNC(=O)c1ccccc1NC(=O)/C(=C/c1ccccc1O)NC(=O)c1ccccc1 | > 100 | > 100 | > 100 | > 100 | > 100 | > 100 | > 100 | > 100 | > 100 | > 100 | > 100 | > 100 | > 100 | 32.7 | 28.1 | 24.2 | > 100 | – | 92.4 | – |
| COc1cc(OC)c2c(=O)cc(-c3ccccc3F)[nH]c2c1 | > 100 | > 100 | > 100 | > 100 | > 100 | > 100 | > 100 | > 100 | > 100 | > 100 | > 100 | > 100 | > 100 | > 100 | > 100 | 84.5 | > 100 | > 100 | – | > 100 |
| COC(=O)C1(c2cc3ccccc3n2S(=O)(=O)c2ccccc2)CC2C=CC1NC2 (configuration not stated) | 4.44 | 15.1 | 8.49 | 5.01 | 3.44 | 10.2 | 4.12 | 16.7 | 6.48 | 4.69 | 3.73 | 6.23 | 3.93 | 3.82 | > 20.2 | 2.86 | 13 | 3.63 | 3.55 | 5.43 |
| Cc1ccc2c(=O)c3cccc(CC(=O)O)c3[nH]c2c1C | > 100 | > 100 | > 100 | > 100 | > 100 | > 100 | > 100 | > 100 | > 100 | > 100 | > 100 | > 100 | > 100 | > 100 | 90.5 | > 100 | > 100 | – | > 100 | > 100 |
| Cc1ccc(N=Nc2ccc(O)c(CN(C)C)c2)cc1C | 38.5 | 61.8 | 44.7 | 43.5 | 81.1 | > 100 | > 100 | 28.4 | > 100 | > 100 | 76.2 | > 100 | 54 | 60.1 | > 100 | 53.2 | 47.4 | 34.7 | 44.1 | > 100 |
| CCN1CCN(c2ccc(Nc3ccnc4ccc5c(nnn5C)c34)cc2)CC1 | 72.4 | 43.9 | 23.9 | 28.2 | 23.9 | 22.7 | 21.8 | 23 | 36.3 | 16 | 13.1 | 14.4 | 16.4 | 11.5 | 23.1 | 25.7 | 29.5 | 24.8 | 11.1 | 18.9 |
| O=C(O)CN1CCN2CCOCCOCCN(CC1)CCN(CC(=O)O)CC2 | > 100 | > 100 | > 100 | > 100 | > 100 | > 100 | > 100 | > 100 | > 100 | > 100 | > 100 | > 100 | > 100 | > 100 | – | > 100 | > 100 | > 100 | > 100 | > 100 |
| CCOP(=O)(CCCC(O)CNc1cc(Cl)nc(N)n1)OCC (configuration not stated) | > 100 | > 100 | > 100 | > 100 | – | > 100 | > 100 | > 100 | > 100 | > 100 | > 100 | > 100 | > 100 | > 100 | > 100 | > 100 | > 100 | > 100 | > 100 | > 100 |
| CC(C)=NN/C(=N\S(=O)(=O)c1ccc(C)cc1)Nc1ccc(Cl)cc1 | > 100 | > 100 | > 100 | > 100 | > 100 | > 100 | > 100 | > 100 | > 100 | > 100 | > 100 | > 100 | > 100 | > 100 | > 100 | > 100 | > 100 | > 100 | – | > 100 |
| O=C1SS(=O)c2ccccc21 (configuration not stated) | > 100 | > 100 | > 100 | > 100 | > 100 | > 100 | > 100 | > 100 | > 100 | > 100 | > 100 | > 100 | > 100 | > 100 | – | > 100 | > 100 | > 100 | > 100 | > 100 |

From PubChem BioAssay (NCI)
